Literature values in PMC13179673 (European journal of pharmaceutical sciences : official …, 2025).

Legend:
[1] = system: OHT rabbit eyes; design: method as in Behar-Cohen et al., 1996; conditions: eyedrop, ref Behar-Cohen et al., 1996
[2] = biological pH at 37°C

What does the source list for `[NH-]c1c[n+](N2CCOCC2)no1` [SIN-1, linsidomine]?
duration of IOP-lowering effect [1]: ≤ 3 h; half-life [2]: < 1 h
